Assay results taken from patent US20260317344A1, “EGFR INHIBITORS FOR TREATING DISEASE” (BLOSSOMHILL THERAPEUTICS, INC., priority 2023, published 2026).

Legend:
EGFR (L858R) = EGFR (L858R) (Homo sapiens, UniProt P00533, L858R); experiment: HotSpot radiometric kinase assay, inhibition of EGFR L858R mutant; assay type: biochemical; conditions: 33P ATP, room temperature, 120 m
Procedure: (§1) Biochemical Assays for inhibition of wild-type and mutant EGFRs
(§2) Briefly, specific kinase/substrate pairs along with required cofactors were prepared in reaction buffer; 20 mM HEPES pH 7.5, 10 mM […], 1 mM EGTA, 0.02% Brij35, 0.02 mg/ml BSA, 0.1 mM Na3VO4, 2 mM DTT, 1% DMSO. Compounds were delivered into the reaction, followed ~20 minutes later by addition of a mixture of ATP (Sigma, St. Louis MO) and ^33P ATP (Perkin Elmer, Waltham MA) to a final concentration of […]. Reactions were carried out at room temperature for 120 m, followed by spotting of the reactions onto P81 ion exchange filter paper (Whatman Inc., Piscataway, NJ). Unbound phosphate was removed by extensive washing of filters in 0.75% phosphoric acid. […] IC50 values and curve fits were obtained using Prism (GraphPad Software).

EGFR (L858R/T790M) = EGFR (L858R/T790M) (Homo sapiens, UniProt P00533, L858R/T790M); experiment: HotSpot radiometric kinase assay, inhibition of EGFR L858R/T790M mutant; assay type: biochemical; conditions: 33P ATP, room temperature, 120 m
Procedure: as §1, §2

EGFR (L858R/T790M/C797S) = EGFR (L858R/T790M/C797S) (Homo sapiens, UniProt P00533, C797S/L858R/T790M); experiment: HotSpot radiometric kinase assay, inhibition of EGFR L858R/T790M/C797S mutant; assay type: biochemical; conditions: 33P ATP, room temperature, 120 m
In short: (§3)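 Radiometric filter-binding format: ATP plus 33P-ATP ([…]) was added about 20 min after compound to kinase and substrate in HEPES pH 7.5 buffer with Mg2+, EGTA, Brij35, BSA, vanadate, DTT and 1% DMSO. After 120 min at room temperature, reactions were spotted on P81 paper and washed in phosphoric acid; IC50 values fitted.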

EGFR (D746-750) = EGFR (D746-750) (Homo sapiens, UniProt P00533, DEL746-750); experiment: HotSpot radiometric kinase assay, inhibition of EGFR 746-750 mutant; assay type: biochemical; conditions: 33P ATP, room temperature, 120 m
In short: as §3

EGFR (D746-750/C797S) = EGFR (D746-750/C797S) (Homo sapiens, UniProt P00533, C797S/DEL746-750); experiment: HotSpot radiometric kinase assay, inhibition of EGFR 746-750/C797S mutant; assay type: biochemical; conditions: 33P ATP, room temperature, 120 m
In short: as §3

EGFR (D770_N771insNPG) = EGFR (D770_N771insNPG) (Homo sapiens, UniProt P00533, INS770NPG); experiment: HotSpot radiometric kinase assay, inhibition of EGFR (D770_N771insNPG) mutant; assay type: biochemical; conditions: 33P ATP, room temperature, 120 m
In short: as §3

EGFR WT = EGFR WT (Homo sapiens, UniProt P00533); experiment: HotSpot radiometric kinase assay, inhibition of EGFR WT; assay type: biochemical; conditions: 33P ATP, room temperature, 120 m
Procedure: as §1, §2

[1] = molecular target: T1, pEGFR, PC-9 cells (d746-750 EGFR) (Homo sapiens, UniProt P00533, DEL746-750); experiment: Cellular EGFR phosphorylation assay (LANCE Ultra TR-FRET) in PC-9 cells; assay type: cell-based; conditions: 4 hours at 37° C., read-out: PC-9 pEGFR IC50
T1 construct: pEGFR (Tyr1068) TR-FRET
In short: (§4)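 pEGFR Tyr1068 TR-FRET readout, lysates after 4 h compound exposure (37 °C, 5% CO2); 9-dose 3-fold series. A431 only: EGF 40 ng/mL for last 10 min. IC50 from curve fit.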

[2] = molecular target: T2, pEGFR, NCI-H1975 cells (L858R/T790M EGFR) (Homo sapiens, UniProt P00533, L858R/T790M); experiment: Cellular EGFR phosphorylation assay (LANCE Ultra TR-FRET) in NCI-H1975 cells; assay type: cell-based; conditions: 4 hours at 37° C., read-out: H1975 pEGFR IC50
T2 construct: pEGFR (Tyr1068) TR-FRET
In short: as §4

[3] = molecular target: T3, pEGFR, A431 cells (wildtype EGFR) (Homo sapiens, UniProt P00533); experiment: Cellular EGFR phosphorylation assay (LANCE Ultra TR-FRET) in A431 cells; assay type: cell-based; conditions: 4 hours at 37° C., 40 ng/mL EGF for the final 10 minutes, read-out: A431 pEGFR IC50
T3 construct: pEGFR (Tyr1068) TR-FRET
In short: as §4

PC-9 cells = experiment: 5-Day CellTiter Glo (CTG) cell proliferation assay, PC-9; assay type: cell-based; conditions: Homo sapiens; PC-9 cells (d746-750 EGFR), 5-day CTG proliferation, 120 hours; read-out: PC-9 IC50
In short: (§5)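 Proliferation of EGFR-driven NSCLC cells was scored as CellTiter-Glo 2.0 luminescence after a 5-day (120 h) incubation with compounds in 9 doses. IC50 values came from the dose-response curves.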

NCI-H1975 cells = experiment: 5-Day CellTiter Glo (CTG) cell proliferation assay, NCI-H1975; assay type: cell-based; conditions: Homo sapiens; NCI-H1975 cells (L858R/T790M EGFR), 5-day CTG proliferation, 120 hours; read-out: H1975 IC50
In short: as §5

HCC827 cells = experiment: 5-Day CellTiter Glo (CTG) cell proliferation assay, HCC827; assay type: cell-based; conditions: Homo sapiens; HCC827 cells (d746-750 EGFR), 5-day CTG proliferation, 120 hours; read-out: HCC827 IC50
In short: as §5

[4] = system: BaF3 cells with engineered EGFR L858R/T790M/C797S; experiment: 3-Day CellTiter Glo (CTG) cell proliferation assay, BaF3 EGFR L858R/T790M/C797S; assay type: cell-based; conditions: Mus musculus, 3-day CTG proliferation, 72 hours
In short: (§6)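 Luminescent ATP read-out (CellTiter-Glo 2.0) after 72 h compound exposure gives IC50 values. BaF3 transgenic cells, one thousand per well, received a nine-dose series and were kept at 37 °C under 5% CO2.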

[5] = system: BaF3 cells with engineered EGFR L858R/C797S; experiment: 3-Day CellTiter Glo (CTG) cell proliferation assay, BaF3 EGFR L858R/C797S; assay type: cell-based; conditions: Mus musculus, 3-day CTG proliferation, 72 hours
In short: as §6

[6] = system: BaF3 cells with engineered EGFR d746-750/T790M; experiment: 3-Day CellTiter Glo (CTG) cell proliferation assay, BaF3 EGFR d746-750/T790M; assay type: cell-based; conditions: Mus musculus; BaF3 EGFR d746-750/T790M cells, 3-day CTG proliferation, 72 hours
In short: as §6

Sequence of EGFR (L858R) (P00533 25-1210 L858R): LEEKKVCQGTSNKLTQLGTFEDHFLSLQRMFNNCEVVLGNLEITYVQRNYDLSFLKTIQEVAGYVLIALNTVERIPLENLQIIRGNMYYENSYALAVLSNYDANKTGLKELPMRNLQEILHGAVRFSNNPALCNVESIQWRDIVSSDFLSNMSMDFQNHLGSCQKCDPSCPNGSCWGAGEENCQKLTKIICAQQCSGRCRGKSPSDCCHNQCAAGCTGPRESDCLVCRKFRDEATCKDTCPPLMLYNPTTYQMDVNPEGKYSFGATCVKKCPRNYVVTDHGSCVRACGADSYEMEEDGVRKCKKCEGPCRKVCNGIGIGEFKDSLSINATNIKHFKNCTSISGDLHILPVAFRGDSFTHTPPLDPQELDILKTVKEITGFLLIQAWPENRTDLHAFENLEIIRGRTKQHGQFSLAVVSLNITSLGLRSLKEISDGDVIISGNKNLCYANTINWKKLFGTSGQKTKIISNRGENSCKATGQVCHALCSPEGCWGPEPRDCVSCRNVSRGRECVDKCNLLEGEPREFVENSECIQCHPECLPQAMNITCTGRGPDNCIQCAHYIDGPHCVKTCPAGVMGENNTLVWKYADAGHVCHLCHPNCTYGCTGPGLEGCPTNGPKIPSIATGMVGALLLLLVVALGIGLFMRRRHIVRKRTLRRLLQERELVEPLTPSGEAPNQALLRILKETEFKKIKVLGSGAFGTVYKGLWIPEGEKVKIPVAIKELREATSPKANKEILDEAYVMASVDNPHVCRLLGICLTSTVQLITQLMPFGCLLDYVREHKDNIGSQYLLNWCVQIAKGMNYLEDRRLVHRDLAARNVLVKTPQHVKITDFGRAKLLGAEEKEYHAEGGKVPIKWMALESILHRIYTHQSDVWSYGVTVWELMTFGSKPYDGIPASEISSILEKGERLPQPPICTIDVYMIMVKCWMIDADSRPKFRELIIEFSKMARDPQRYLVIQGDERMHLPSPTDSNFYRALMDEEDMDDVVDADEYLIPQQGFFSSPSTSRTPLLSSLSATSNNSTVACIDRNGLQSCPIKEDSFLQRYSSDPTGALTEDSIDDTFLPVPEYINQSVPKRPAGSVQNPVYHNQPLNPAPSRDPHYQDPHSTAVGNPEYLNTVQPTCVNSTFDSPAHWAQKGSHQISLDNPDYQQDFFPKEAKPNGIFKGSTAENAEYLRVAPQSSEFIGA
T3 sequence (P00533 25-1210): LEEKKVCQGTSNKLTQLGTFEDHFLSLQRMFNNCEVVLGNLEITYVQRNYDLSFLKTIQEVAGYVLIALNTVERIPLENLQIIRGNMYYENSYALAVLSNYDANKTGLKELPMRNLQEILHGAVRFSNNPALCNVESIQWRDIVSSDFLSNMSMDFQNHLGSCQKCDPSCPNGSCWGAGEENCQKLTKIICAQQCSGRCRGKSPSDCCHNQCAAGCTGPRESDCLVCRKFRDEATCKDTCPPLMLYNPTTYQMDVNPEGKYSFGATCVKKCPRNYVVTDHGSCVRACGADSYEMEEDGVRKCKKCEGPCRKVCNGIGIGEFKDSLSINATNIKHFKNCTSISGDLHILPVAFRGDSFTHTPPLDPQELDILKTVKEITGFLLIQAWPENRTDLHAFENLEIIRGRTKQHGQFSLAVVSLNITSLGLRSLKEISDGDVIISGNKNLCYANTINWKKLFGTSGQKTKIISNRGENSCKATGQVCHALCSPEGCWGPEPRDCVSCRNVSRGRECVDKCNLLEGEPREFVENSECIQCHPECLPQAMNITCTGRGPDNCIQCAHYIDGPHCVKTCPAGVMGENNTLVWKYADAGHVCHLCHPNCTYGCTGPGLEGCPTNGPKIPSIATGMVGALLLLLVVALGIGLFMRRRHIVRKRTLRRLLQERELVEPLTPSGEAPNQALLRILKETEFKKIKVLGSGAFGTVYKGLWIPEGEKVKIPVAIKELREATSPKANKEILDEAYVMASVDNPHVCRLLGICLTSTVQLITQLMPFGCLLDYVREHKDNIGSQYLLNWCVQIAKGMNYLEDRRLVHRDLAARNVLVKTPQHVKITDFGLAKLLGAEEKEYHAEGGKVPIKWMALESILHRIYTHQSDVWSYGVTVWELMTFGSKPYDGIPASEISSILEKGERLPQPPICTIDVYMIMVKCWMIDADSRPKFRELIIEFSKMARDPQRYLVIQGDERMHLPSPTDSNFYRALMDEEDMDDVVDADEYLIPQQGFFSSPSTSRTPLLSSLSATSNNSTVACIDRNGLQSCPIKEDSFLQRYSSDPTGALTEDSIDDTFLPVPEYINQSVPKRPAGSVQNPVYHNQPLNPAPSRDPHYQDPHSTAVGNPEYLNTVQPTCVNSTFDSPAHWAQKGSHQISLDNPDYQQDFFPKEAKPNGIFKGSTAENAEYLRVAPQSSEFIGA
Sequence of EGFR WT (P00533 25-1210): as above
Sequence of EGFR (L858R/T790M) (P00533 25-1210 T790M/L858R): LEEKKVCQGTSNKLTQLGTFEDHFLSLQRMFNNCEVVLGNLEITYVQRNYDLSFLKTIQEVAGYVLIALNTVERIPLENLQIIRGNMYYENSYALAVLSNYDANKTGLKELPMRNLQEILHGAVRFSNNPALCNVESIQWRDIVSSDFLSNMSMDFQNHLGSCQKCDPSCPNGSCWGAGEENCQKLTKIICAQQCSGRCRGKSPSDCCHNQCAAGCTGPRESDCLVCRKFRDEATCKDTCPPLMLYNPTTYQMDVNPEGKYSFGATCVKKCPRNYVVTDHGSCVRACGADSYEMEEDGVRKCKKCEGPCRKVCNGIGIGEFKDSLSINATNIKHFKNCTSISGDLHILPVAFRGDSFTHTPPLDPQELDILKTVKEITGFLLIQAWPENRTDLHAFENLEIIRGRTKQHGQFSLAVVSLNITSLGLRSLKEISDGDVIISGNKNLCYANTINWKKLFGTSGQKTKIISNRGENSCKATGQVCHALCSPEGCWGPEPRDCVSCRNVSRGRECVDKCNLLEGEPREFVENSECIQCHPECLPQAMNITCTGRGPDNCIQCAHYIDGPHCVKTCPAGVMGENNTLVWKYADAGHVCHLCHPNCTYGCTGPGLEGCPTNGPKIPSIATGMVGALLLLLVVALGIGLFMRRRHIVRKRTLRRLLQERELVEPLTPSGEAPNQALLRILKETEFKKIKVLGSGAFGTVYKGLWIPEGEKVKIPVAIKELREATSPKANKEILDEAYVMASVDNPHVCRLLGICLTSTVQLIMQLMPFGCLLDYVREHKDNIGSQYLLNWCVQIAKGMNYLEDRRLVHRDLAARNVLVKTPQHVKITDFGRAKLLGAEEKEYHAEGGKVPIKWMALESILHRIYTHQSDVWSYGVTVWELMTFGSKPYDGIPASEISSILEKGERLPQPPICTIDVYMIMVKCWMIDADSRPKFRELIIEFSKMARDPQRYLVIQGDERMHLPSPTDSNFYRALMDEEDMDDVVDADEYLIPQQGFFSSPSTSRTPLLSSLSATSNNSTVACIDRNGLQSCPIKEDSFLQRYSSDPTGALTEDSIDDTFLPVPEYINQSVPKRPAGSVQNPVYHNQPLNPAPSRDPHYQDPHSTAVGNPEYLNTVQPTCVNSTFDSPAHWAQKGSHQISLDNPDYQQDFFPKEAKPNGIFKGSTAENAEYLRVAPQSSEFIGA

IC50 (EGFR (L858R)) [nM]	IC50 (EGFR (L858R/T790M)) [nM]	IC50 (EGFR (L858R/T790M/C797S)) [nM]	IC50 (EGFR (D746-750)) [nM]	IC50 (EGFR (D746-750/C797S)) [nM]	IC50 (EGFR (D770_N771insNPG)) [nM]	IC50 (EGFR WT) [nM]	IC50 [1] [nM]	IC50 [2] [nM]	IC50 [3] [nM]	IC50 (PC-9 cells) [nM]	IC50 (NCI-H1975 cells) [nM]	IC50 (HCC827 cells) [nM]	IC50 [4] [nM]	IC50 [5] [nM]	IC50 [6] [nM]	Structure (SMILES)
1.11	1.84	0.99	1.24	1.54	1.51	1.13	3.09	3.01	19.1	4.66	28.6	0.68	1.57	0.41	1.7	CCOc1nn(CCO)c2c1/C=C/c1n[nH]c3cnc(cc13)-c1c(C)nn(C)c1O[C@H](C)CN(C(C)C)C2 [Ex. 1, 2-[(10R,17E)-16-ethoxy-6,8,10-trimethyl-12-(propan-2-yl)-2,8,10,11,12,13-hexahydro-14H-5,3-(azenometheno)tripyrazolo[3,4-f:3′,4′-j:4″,3″-n][1,4]oxazacyclopentadecin-14-yl]ethan-1-ol]
1.5	1.33	0.85	1.27	1.56	3.8	1.83	14.7	6.43	36.5	55.4	29.6	4.42	1.81	1.3	4.51	CC(C)Oc1nn(CCO)c2c1/C=C/c1n[nH]c3cnc(cc13)-c1cnn(C)c1O[C@H](C)CN(C(C)C)C2 [Ex. 3, 2-[(10R,17E)-8,10-dimethyl-12-(propan-2-yl)-16-[(propan-2-yl)oxy]-2,8,10,11,12,13-hexahydro-14H-5,3-(azenometheno)tripyrazolo[3,4-f:3′,4′-j:4″,3″-n][1,4]oxazacyclopentadecin-14-yl]ethan-1-ol]
0.35	0.7	0.48	0.55	0.37	0.32	0.15	1.05	1.54	8.1	0.36	0.92	0.11	0.81	0.1	0.44	CCOc1nn(CCO)c2c1/C=C/c1n[nH]c3cnc(cc13)-c1c(C)nn(C)c1O[C@@H](C)CN(C(C)C)C2 [Ex. 8, 2-[(10S,17E)-16-ethoxy-6,8,10-trimethyl-12-(propan-2-yl)-2,8,10,11,12,13-hexahydro-14H-5,3-(azenometheno)tripyrazolo[3,4-f:3′,4′-j:4″,3″-n][1,4]oxazacyclopentadecin-14-yl]ethan-1-ol]
0.46	0.46	0.51	0.64	0.27	0.4	0.35	10.8	4.82	51.9	–	–	–	1.89	–	0.69	CCN1Cc2c(c(OC(C)C)nn2CCO)/C=C/c2n[nH]c3cnc(cc23)-c2cnn(C)c2O[C@H](C)C1 [Ex. 10, 2-[(10R,17E)-12-ethyl-8,10-dimethyl-16-[(propan-2-yl)oxy]-2,8,10,11,12,13-hexahydro-14H-5,3-(azenometheno)tripyrazolo[3,4-f:3′,4′-j:4″,3″-n][1,4]oxazacyclopentadecin-14-yl]ethan-1-ol]
0.16	0.2	0.19	0.41	0.16	0.07	0.05	1	2.09	12	0.38	4.27	0.26	1.05	0.1	1.46	CCN1Cc2c(c(C)nn2CCO)/C=C/c2n[nH]c3cnc(cc23)-c2c(C)nn(C)c2O[C@@H](C)C1 [Ex. 13, 2-[(10S,17E)-12-ethyl-6,8,10,16-tetramethyl-2,8,10,11,12,13-hexahydro-14H-5,3-(azenometheno)tripyrazolo[3,4-f:3′,4′-j:4″,3″-n][1,4]oxazacyclopentadecin-14-yl]ethan-1-ol]
0.25	0.23	0.22	0.47	0.2	0.15	0.08	11.8	7.52	44.7	54.5	110	2.87	5.24	1.24	22.3	CCN1Cc2c(c(C)nn2CCO)/C=C/c2n[nH]c3cnc(cc23)-c2c(C)nn(C)c2O[C@H](C)C1 [Ex. 14, 2-[(10R,17E)-12-ethyl-6,8,10,16-tetramethyl-2,8,10,11,12,13-hexahydro-14H-5,3-(azenometheno)tripyrazolo[3,4-f:3′,4′-j:4″,3″-n][1,4]oxazacyclopentadecin-14-yl]ethan-1-ol]
0.55	0.81	2.57	0.27	0.98	1.48	0.71	11.8	8.57	61	25.2	96	2.89	5.29	3.05	–	Cc1nn(CCO)c2c1/C=C/c1n[nH]c3cnc(cc13)-c1c(C)nn(C)c1O[C@H](C)CN(C(C)C)C2 [Ex. 20, 2-[(10R,17E)-6,8,10,16-tetramethyl-12-(propan-2-yl)-2,8,10,11,12,13-hexahydro-14H-5,3-(azenometheno)tripyrazolo[3,4-f:3′,4′-j:4″,3″-n][1,4]oxazacyclopentadecin-14-yl]ethan-1-ol]
0.29	0.5	2.14	0.17	0.83	0.2	0.16	1.69	2.32	15.8	0.63	5.72	0.26	0.9	0.14	–	Cc1nn(CCO)c2c1/C=C/c1n[nH]c3cnc(cc13)-c1c(C)nn(C)c1O[C@@H](C)CN(C(C)C)C2 [Ex. 21, 2-[(10S,17E)-6,8,10,16-tetramethyl-12-(propan-2-yl)-2,8,10,11,12,13-hexahydro-14H-5,3-(azenometheno)tripyrazolo[3,4-f:3′,4′-j:4″,3″-n][1,4]oxazacyclopentadecin-14-yl]ethan-1-ol]
